pIC50: −log10 of the molar value.
Tested on: K12877-001-R-J1-PDC complex spheroid viability
Test: Anticancer human tumor K12877-001-R-J1-PDC patient-derived lung adenocarcinoma cell line growth inhibition [RAS]
Conditions: for pIC50: curve of first compound; for viability, T/C: stronger effect = lower value; active = viability on the fitted dose curve at most 10% of control; inactive = the rest
From the text: RAS pathway inhibitors in Combinations in Complex Spheroids
A high-throughput screen of multi-cell type tumor spheroids was designed to identify active combinations of RAS pathway inhibitors and targeted small molecules. Complex spheroids include a stromal component modeled by human endothelial cells (HUVEC) and fibroblasts modeled by human mesenchymal stem cells (MSCs). The concentration ranges selected for each drug and investigational agent were based upon clinically achievable concentrations if the clinical Cmax of the agent was known.
Compounds. The drugs and investigational agents: abemaciclib (NSC768073), cobimetinib (NSC768068), divarasib (GDC6063, NSC841802), docetaxel (NSC628503), GDC-1971 (RLY-1971, NSC841576), gemcitabine (NSC613327), inavolisib (NSC800729), ipatasertib (NSC767898), KB-0742 (NSC834161), MRTX-1133 (NSC836407), osimertinib (NSC779217), RMC-4630 (NSC839698), RMC-6236 (NSC851965), RMC-6291 (NSC852671), Ro-3306 (NSC812927), sapanisertib (NSC764658), SN-38 (NSC673596), staurosporine (NSC755774), SY5609 (NSC837396), and tovorafenib (DAY101, NSC766906), were obtained from the National Cancer Institute (NCI) Developmental Therapeutics Program Chemical Repository. The FDA-approved anticancer drug set is available from the NCI Developmental Therapeutics Program. […] The stock solutions were prepared in dimethyl sulfoxide (DMSO, Sigma-Aldrich, St. Louis, MO, cat. D2650) at 800-fold the tested concentration and stored at -70 degrees C prior to their use. All drugs and investigational agents were tested over a range starting from a high concentration at or near the clinical Cmax and decreasing in half-log increments. If the clinical Cmax for an agent had not been determined, the highest concentration tested was 10 microM.
Cell Culture. All cells were maintained in an incubator at 37 degrees C and 5% CO2 with 95% humidity. The PDC lines were cultured according to standard operating procedures established by the NCI PDMR. All PDCs were thawed and cultured in Matrigel-coated flasks prepared with a working solution of 1X Ham's F-12 nutrient mix, without supplementation (Invitrogen, Waltham, MA, cat. 11765054), 100 U/mL penicillin-streptomycin (Invitrogen, cat. 15140122), and 2.5% Matrigel (Corning Inc., Corning, NY, cat. 354248) for the first three passages. The 362531-283-R-J2-PDC and 782815-120-R-J1-PDC lines were cultured in 6C/Colon 1B media, which includes advanced DMEM/F-12 (Thermo Fisher Scientific, cat. 12634028), 10 mM HEPES (Thermo Fisher Scientific, cat. 15630080), 1X GlutaMAX supplement (Thermo Fisher Scientific, cat. 35050061), 0.1 mg/mL primocin (InvivoGen, San Diego, CA, cat. ant-pm-2), 10% defined fetal bovine serum, heat inactivated (HyClone Laboratories Inc., Logan, UT, cat. SH30070.03HI), 50% L-WRN conditioned media (ATCC, cat. CRL-3276), 1.25 mM N-Acetyl-L-cysteine (Sigma-Aldrich, cat. A9165), 10 mM nicotinamide (Sigma-Aldrich, cat. N0636), 1X B-27 supplement (Thermo Fisher Scientific, cat. 17504044), 1X N-2 supplement (Thermo Fisher Scientific, cat. 17502048), 50 ng/mL human EGF (Thermo Fisher Scientific, cat. PHG0311), and 10 microM Y-27632 dihydrochloride (Tocris Bioscience, cat. 1254). The K12877-001-R-J1-PDC line was cultured in 6I media, which includes all 6C/Colon 1B media plus 10 ng/mL human FGF-10 (PeproTech, cat. 100-26), 1 ng/mL human FGF-2 (PeproTech, cat. 100-18B), 1 µM prostaglandin E2 (Tocris Bioscience, cat. 2296), […] hydrocortisone (Sigma-Aldrich, cat. H4001), and […] bovine insulin (Sigma-Aldrich, cat. I6634). The K86415-001-R-J1-PDC line was cultured in 6D media, which includes all 6C/Colon 1B media components minus the L-WRN conditioned media. The 485176-168-R4-J1-PDC was cultured in PANC media, which includes all 6C/Colon 1B media plus 100 ng/mL human FGF-10 (PeproTech, cat. 100-26), 500 nM SB-431542 (Selleckchem, cat. S1067), and 10 nM gastrin (Tocris Bioscience, cat. 3006). […]

[1] = second compound 0.0316 µM, first compound 0.0316 µM
[2] = second compound 0.0316 µM, first compound 0.1 µM
[3] = second compound 0.0316 µM, first compound 0.316 µM
[4] = second compound 0.0316 µM, first compound 1 µM
[5] = second compound 0.0316 µM, first compound 3.16 µM
[6] = second compound 0.0316 µM, first compound 10 µM
[7] = second compound 0.1 µM, first compound 0.0316 µM
[8] = second compound 0.1 µM, first compound 0.1 µM
[9] = second compound 0.1 µM, first compound 0.316 µM
[10] = second compound 0.1 µM, first compound 1 µM
[11] = second compound 0.1 µM, first compound 3.16 µM
[12] = second compound 0.1 µM, first compound 10 µM
[13] = second compound 0.316 µM, first compound 0.0316 µM
[14] = second compound 0.316 µM, first compound 0.1 µM
[15] = second compound 0.316 µM, first compound 0.316 µM
[16] = second compound 0.316 µM, first compound 1 µM
[17] = second compound 0.316 µM, first compound 3.16 µM
[18] = second compound 0.316 µM, first compound 10 µM
[19] = second compound 1 µM, first compound 0.0316 µM
[20] = second compound 1 µM, first compound 0.1 µM
[21] = second compound 1 µM, first compound 0.316 µM
[22] = second compound 1 µM, first compound 1 µM
[23] = second compound 1 µM, first compound 3.16 µM
[24] = second compound 1 µM, first compound 10 µM
[25] = second compound 3.16 µM, first compound 0.0316 µM
[26] = second compound 3.16 µM, first compound 0.1 µM
[27] = second compound 3.16 µM, first compound 0.316 µM
[28] = second compound 3.16 µM, first compound 1 µM
[29] = second compound 3.16 µM, first compound 3.16 µM
[30] = second compound 3.16 µM, first compound 10 µM
[31] = second compound 10 µM, first compound 0.0316 µM
[32] = second compound 10 µM, first compound 0.1 µM
[33] = second compound 10 µM, first compound 0.316 µM
[34] = second compound 10 µM, first compound 1 µM
[35] = second compound 10 µM, first compound 3.16 µM
[36] = second compound 10 µM, first compound 10 µM
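Note: spheroids exposed to agents for one week before readout.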

CC1(O)CCCC1n1c(=O)c(C(F)F)cc2cnc(NC3CCN(S(C)(=O)=O)CC3)nc21 (stereo unspecified) + C#Cc1c(F)ccc2cc(O)cc(-c3ncc4c(N5CC6CCC(C5)N6)nc(OCC56CCCN5CC(F)C6)nc4c3F)c12
5.51: pIC50 (second compound 0.1 µM)
5.40: pIC50 (second compound 1 µM)
5.38: pIC50 (second compound 3.16 µM)
5.48: pIC50 (second compound 0.0316 µM)
5.41: pIC50 (second compound 0.316 µM)
active: viability, T/C [6] 3.3% | viability, T/C [12] 3.47% | viability, T/C [18] 3.03% | viability, T/C [24] 3.27% | viability, T/C [30] 3.16% | viability, T/C [36] 2.77%
5.46: pIC50 (second compound 10 µM)
inactive: viability, T/C [1] 98.5% | viability, T/C [2] 115% | viability, T/C [3] 77.2% | viability, T/C [4] 72.1% | viability, T/C [5] 60.9% | viability, T/C [7] 112% | viability, T/C [8] 115% | viability, T/C [9] 87.7% | viability, T/C [10] 66% | viability, T/C [11] 62.7% | viability, T/C [13] 119% | viability, T/C [14] 104% | viability, T/C [15] 85.3% | viability, T/C [16] 81.1% | viability, T/C [17] 72.3% | viability, T/C [19] 106% | viability, T/C [20] 106% | viability, T/C [21] 84.7% | viability, T/C [22] 83% | viability, T/C [23] 67.2% | viability, T/C [25] 120% | viability, T/C [26] 93.1% | viability, T/C [27] 93.3% | viability, T/C [28] 80% | viability, T/C [29] 74.1% | viability, T/C [31] 92% | viability, T/C [32] 87% | viability, T/C [33] 71.6% | viability, T/C [34] 76.9% | viability, T/C [35] 56.3%

CCC(CC)c1cc(NC2CCC(N)C2)n2nccc2n1 (stereo unspecified) + C#Cc1c(F)ccc2cc(O)cc(-c3ncc4c(N5CC6CCC(C5)N6)nc(OCC56CCCN5CC(F)C6)nc4c3F)c12
5.80: pIC50 (second compound 3.16 µM)
inactive: viability, T/C [1] 89.6% | viability, T/C [2] 99.2% | viability, T/C [3] 91.7% | viability, T/C [4] 78.1% | viability, T/C [7] 107% | viability, T/C [8] 92.8% | viability, T/C [9] 103% | viability, T/C [10] 89.6% | viability, T/C [13] 114% | viability, T/C [14] 111% | viability, T/C [15] 93.4% | viability, T/C [16] 83.6% | viability, T/C [19] 102% | viability, T/C [20] 88.8% | viability, T/C [21] 105% | viability, T/C [22] 102% | viability, T/C [25] 109% | viability, T/C [26] 105% | viability, T/C [27] 103% | viability, T/C [28] 81.1% | viability, T/C [31] 102% | viability, T/C [32] 86.2% | viability, T/C [33] 93.3% | viability, T/C [34] 72.4%
5.84: pIC50 (second compound 10 µM)
5.77: pIC50 (second compound 0.1 µM)
5.74: pIC50 (second compound 1 µM)
active: viability, T/C [5] 2.8% | viability, T/C [6] 1.63% | viability, T/C [11] 2.62% | viability, T/C [12] 1.37% | viability, T/C [17] 3.3% | viability, T/C [18] 1.42% | viability, T/C [23] 2.94% | viability, T/C [24] 1.04% | viability, T/C [29] 2.74% | viability, T/C [30] 1.05% | viability, T/C [35] 2.41% | viability, T/C [36] 1.21%
5.79: pIC50 (second compound 0.316 µM)
5.81: pIC50 (second compound 0.0316 µM)

CCN1CCN(Cc2ccc(Nc3ncc(F)c(-c4cc(F)c5nc(C)n(C(C)C)c5c4)n3)nc2)CC1 + C#Cc1c(F)ccc2cc(O)cc(-c3ncc4c(N5CC6CCC(C5)N6)nc(OCC56CCCN5CC(F)C6)nc4c3F)c12
inactive: viability, T/C (second compound 0.0316 µM, first compound 0.00316 µM) 106% | viability, T/C (second compound 0.0316 µM, first compound 0.01 µM) 101% | viability, T/C [1] 106% | viability, T/C [2] 85.6% | viability, T/C [3] 118% | viability, T/C [4] 97.2% | viability, T/C (second compound 0.1 µM, first compound 0.00316 µM) 97.9% | viability, T/C (second compound 0.1 µM, first compound 0.01 µM) 102% | viability, T/C [7] 113% | viability, T/C [8] 97.8% | viability, T/C [9] 118% | viability, T/C [10] 88.4% | viability, T/C (second compound 0.316 µM, first compound 0.00316 µM) 115% | viability, T/C (second compound 0.316 µM, first compound 0.01 µM) 107% | viability, T/C [13] 98.6% | viability, T/C [14] 99.2% | viability, T/C [15] 109% | viability, T/C [16] 108% | viability, T/C (second compound 1 µM, first compound 0.00316 µM) 109% | viability, T/C (second compound 1 µM, first compound 0.01 µM) 113% | viability, T/C [19] 96.7% | viability, T/C [20] 104% | viability, T/C [21] 108% | viability, T/C [22] 82.2% | viability, T/C (second compound 3.16 µM, first compound 0.00316 µM) 108% | viability, T/C (second compound 3.16 µM, first compound 0.01 µM) 105% | viability, T/C [25] 97% | viability, T/C [26] 94.1% | viability, T/C [27] 76.1% | viability, T/C [28] 83.9% | viability, T/C (second compound 10 µM, first compound 0.00316 µM) 105% | viability, T/C (second compound 10 µM, first compound 0.01 µM) 84.8% | viability, T/C [31] 90.4% | viability, T/C [32] 92.3% | viability, T/C [33] 87.2% | viability, T/C [34] 56.7%
< 6.00: pIC50 (second compound 0.0316 µM) | pIC50 (second compound 0.1 µM) | pIC50 (second compound 0.316 µM) | pIC50 (second compound 1 µM) | pIC50 (second compound 3.16 µM) | pIC50 (second compound 10 µM)

— PubChem BioAssay AID2060894 (Molecular Pharmacology Branch, DTP, NCI, 2025)
